Assay results reported in US8883841B2, “Oncogenic ras-specific cytotoxic compound and methods of use thereof” (The Board of Regents of the University of Texas System, priority 2005, dated 2014).
Like-named read-outs stand apart in the source and are kept apart here.

Tests used:
[1] = system: Ovcar443; test: Cell viability, Ovcar443 ovary cancer cells; type: cell-based
[2] = In vivo toxicity assay in tumor-bearing nude mice
[3] = system: Ovca429; test: Cell viability, Ovca429 ovary cancer cells; type: cell-based
[4] = system: H460 tumors; test: In vivo antitumor activity, subcutaneous H460 tumors in nude mice
Procedure: The inventors have investigated the in vivo antitumor activity of Oncrasin compounds, such as Oncrasin-1 and Oncrasin-27, both are available at relatively larger scale. Subcutaneous tumors were established in 4- to 6-week-old female nude mice (Charles River Laboratories Inc., Wilmington, Mass.) by the inoculation of 1.5×10^6 H460 cells into the dorsal flank of each mouse. After the tumors grew to 5 mm in diameter, mice were treated with intraperitoneal injections of Oncrasin-1 (for 10 days) or Oncrasin-27 (for 3 days, because of limited availability of the compound) at a dose of 100 mg/kg/injection daily (the agents were dissolved in 0.5 mL of solvent containing 10% DMSO, 10% Cremophor EL, and 10% ethanol), or they were given intraperitoneal injections of solvent alone. The tumor volumes were calculated using the formula a×b^2×0.5, where a and b represent the larger and smaller diameters, respectively (Gu et al., 2000; Terashi et al., 2005). Mice were killed when the tumors grew to 1.5 cm in diameter. To evaluate the toxicity of treatment, blood samples were collected from the tail vein before treatment and 2 days after the last treatment, and serum alanine transaminase, aspartate transaminase, and creatinine levels were determined as described elsewhere (Gu et al., 2000; Terashi et al., 2005). Hematopoietic toxicity was monitored by counting red blood cells, white blood cells, and platelets (Gu et al., 2002; Terashi et al., 2005). The lung, heart, liver, intestine, spleen, and kidney were harvested after the mice were killed to test the toxic effects of both compounds on these organs. The histopathologic analysis was performed in the histology laboratory of the Department of Veterinary Medicine and Surgery at M. D. Anderson Cancer Center. […] The mean survivals for mice treated with solvent, Oncrasin-1, and Oncrasin-27 were 24, 32, and 34 days, respectively.

[5] = system: NCI-H226; test: NCI in-vitro testing, NCI-H226 (Non-Small Cell Lung Cancer)
[6] = system: HS 578T; test: NCI in-vitro testing, HS 578T (Breast Cancer)
[7] = system: SF-539; test: NCI in-vitro testing, SF-539 (CNS Cancer)
[8] = system: panel of 60 cancer cell lines; test: NCI Developmental Therapeutics Program in-vitro testing, panel of 60 cancer cell lines (whole panel); type: cell-based
[9] = system: ACHN; test: NCI in-vitro testing, ACHN (Renal Cancer)
[10] = system: MALME-3M; test: NCI in-vitro testing, MALME-3M (Melanoma)
[11] = system: NCI-H23; test: NCI in-vitro testing, NCI-H23 (Non-Small Cell Lung Cancer)
[12] = system: SK-MEL-2; test: NCI in-vitro testing, SK-MEL-2 (Melanoma)
[13] = system: HOP-62; test: NCI in-vitro testing, HOP-62 (Non-Small Cell Lung Cancer)
[14] = system: M14; test: NCI in-vitro testing, M14 (Melanoma)

O=Cc1cn(Cc2ccc(Cl)cc2)c2ccccc12 [Oncrasin K001, 1H-Indole-3-carboxaldehyde, 1-[(4-chlorophenyl)methyl]-(9CI)]
IC50 (−LogM) [1]: 4.5 −LogM
serum ALT, AST, and creatinine levels ([2]; 2 days after the last treatment): within the normal range
histopathologic examination of organs ([2]; lung, heart, stomach, small intestine, liver, spleen, pancreas, kidney): no significant lesions
blood cell counts ([2]; red blood cells, white blood cells, platelets): all in the normal ranges
body weights ([2]; vs solvent): No difference
IC50 (−LogM) [3]: 4.5 −LogM
suppression of growth of tumor volume in comparison with solvent ([4]; 100 mg/kg/injection daily i.p., Oncrasin-1 10 days, Oncrasin-27 3 days): 75.4%
mean survival ([4]; 100 mg/kg/injection daily i.p., solvent 24 days): 32 days
mean tumor volume vs solvent-treated mice ([4]; p<0.05, 5 mice per group): differed significantly

OCc1cn(Cc2ccc(Cl)cc2)c2ccccc12 [Oncrasin K060, 1H-Indole-3-methanol, 1-[(4-chlorophenyl)methyl]-]
GI50 ([5]; Homo sapiens, NCI-H226): < 0.01 µM
CC50 ([5]; Homo sapiens, NCI-H226, read-out: LC50): 0.501 µM
GI50 ([5]; Homo sapiens, NCI-H226, read-out: Log10 GI50 (converted)): < 0.01 µM
TGI ([5]; NCI-H226): 4.48E−8 Molar
Percent Growth ([5]; NCI-H226, Log10 Concentration −4.0 Molar): −65%
Percent Growth ([5]; NCI-H226, Log10 Concentration −5.0 Molar): −68%
Percent Growth ([5]; NCI-H226, Log10 Concentration −6.0 Molar): −82%
Percent Growth ([5]; NCI-H226, Log10 Concentration −7.0 Molar): −22%
Percent Growth ([5]; NCI-H226, Log10 Concentration −8.0 Molar): 40%
TGI [6]: 2.75E−5 Molar
GI50 ([6]; Homo sapiens, Hs-578T): 46.8 µM
CC50 ([6]; Homo sapiens, Hs-578T, read-out: LC50): > 100 µM
GI50 ([6]; Homo sapiens, Hs-578T, read-out: Log10 GI50 (converted)): 4.68 µM
IC50 [1]: 2.51 µM
GI50 ([7]; Homo sapiens, SF-539): 10.9 µM
CC50 ([7]; Homo sapiens, SF-539, read-out: LC50): 60 µM
GI50 ([7]; Homo sapiens, SF-539, read-out: Log10 GI50 (converted)): 11 µM
TGI ([7]; SF-539): 2.70E−5 Molar
Percent Growth ([7]; SF-539, Log10 Concentration −4.0 Molar): −73%
Percent Growth ([7]; SF-539, Log10 Concentration −5.0 Molar): 55%
Percent Growth ([7]; SF-539, Log10 Concentration −6.0 Molar): 104%
Percent Growth ([7]; SF-539, Log10 Concentration −7.0 Molar): 110%
Percent Growth ([7]; SF-539, Log10 Concentration −8.0 Molar): 108%
anticancer spectrum in NCI panel ([8]; leukemia, non small lung, colon, melanoma, ovarian, renal, breast): active in a number of cancer cell lines
GI50 ([8]; of 54 cancer cell lines tested, read-out: medium 50% growth inhibition (GI50) concentration): 1.12 µM
IC50 [3]: 31.6 µM
TGI [9]: 2.25E−5 Molar
GI50 ([9]; Homo sapiens): 2 µM
CC50 ([9]; Homo sapiens, read-out: LC50): > 100 µM
GI50 ([9]; Homo sapiens, read-out: Log10 GI50 (converted)): 2.63 µM
Percent Growth ([9]; Log10 Concentration −4.0 Molar): −30%
Percent Growth ([9]; Log10 Concentration −5.0 Molar): 10%
Percent Growth ([9]; Log10 Concentration −6.0 Molar): 75%
Percent Growth ([9]; Log10 Concentration −7.0 Molar): 92%
Percent Growth ([9]; Log10 Concentration −8.0 Molar): 99%
GI50 ([10]; Homo sapiens, Malme-3M): 51.7 µM
CC50 ([10]; Homo sapiens, Malme-3M, read-out: LC50): 82 µM
GI50 ([10]; Homo sapiens, Malme-3M, read-out: Log10 GI50 (converted)): 5.13 µM
TGI ([10]; MALME-3M): 2.37E−5 Molar
Percent Growth ([10]; MALME-3M, Log10 Concentration −4.0 Molar): −58%
Percent Growth ([10]; MALME-3M, Log10 Concentration −5.0 Molar): 35%
Percent Growth ([10]; MALME-3M, Log10 Concentration −6.0 Molar): 88%
Percent Growth ([10]; MALME-3M, Log10 Concentration −7.0 Molar): 114%
Percent Growth ([10]; MALME-3M, Log10 Concentration −8.0 Molar): 105%
GI50 ([11]; Homo sapiens, NCI-H23): 2.9 µM
CC50 ([11]; Homo sapiens, NCI-H23, read-out: LC50): 71.1 µM
GI50 ([11]; Homo sapiens, NCI-H23, read-out: Log10 GI50 (converted)): 2.88 µM
TGI ([11]; NCI-H23): 2.10E−5 Molar
Percent Growth ([11]; NCI-H23, Log10 Concentration −4.0 Molar): −54%
Percent Growth ([11]; NCI-H23, Log10 Concentration −5.0 Molar): 31%
Percent Growth ([11]; NCI-H23, Log10 Concentration −6.0 Molar): 67%
Percent Growth ([11]; NCI-H23, Log10 Concentration −7.0 Molar): 82%
Percent Growth ([11]; NCI-H23, Log10 Concentration −8.0 Molar): 94%
GI50 ([12]; Homo sapiens, SK-MEL-2): 1.58 µM
CC50 ([12]; Homo sapiens, SK-MEL-2, read-out: LC50): 48.2 µM
GI50 ([12]; Homo sapiens, SK-MEL-2, read-out: Log10 GI50 (converted)): 1.58 µM
TGI ([12]; SK-MEL-2): 5.94E−6 Molar
Percent Growth ([12]; SK-MEL-2, Log10 Concentration −4.0 Molar): −64%
Percent Growth ([12]; SK-MEL-2, Log10 Concentration −5.0 Molar): −20%
Percent Growth ([12]; SK-MEL-2, Log10 Concentration −6.0 Molar): 67%
Percent Growth ([12]; SK-MEL-2, Log10 Concentration −7.0 Molar): 84%
Percent Growth ([12]; SK-MEL-2, Log10 Concentration −8.0 Molar): 98%
TGI ([13]; HOP-62): 1.93E−5 Molar
Percent Growth ([13]; HOP-62, Log10 Concentration −4.0 Molar): −37%
Percent Growth ([13]; HOP-62, Log10 Concentration −5.0 Molar): 15%
Percent Growth ([13]; HOP-62, Log10 Concentration −6.0 Molar): 36%
Percent Growth ([13]; HOP-62, Log10 Concentration −7.0 Molar): 07%
Percent Growth ([13]; HOP-62, Log10 Concentration −8.0 Molar): 91%
GI50 ([13]; Homo sapiens, HOP-62): 0.3 µM
CC50 ([13]; Homo sapiens, HOP-62, read-out: LC50): > 100 µM
GI50 ([13]; Homo sapiens, HOP-62, read-out: Log10 GI50 (converted)): 0.363 µM
GI50 ([14]; Homo sapiens, M14): 6.16 µM
CC50 ([14]; Homo sapiens, M14, read-out: LC50): 55.9 µM
GI50 ([14]; Homo sapiens, M14, read-out: Log10 GI50 (converted)): 5.13 µM
TGI ([14]; M14): 2.03E−5 Molar
Percent Growth ([14]; M14, Log10 Concentration −4.0 Molar): −79%
Percent Growth ([14]; M14, Log10 Concentration −5.0 Molar): 35%
Percent Growth ([14]; M14, Log10 Concentration −6.0 Molar): 87%
Percent Growth ([14]; M14, Log10 Concentration −7.0 Molar): 94%
Percent Growth ([14]; M14, Log10 Concentration −8.0 Molar): 95%
